{"source": "patent US12491182B2", "about": "“Polymorphs of triazole antifungal compound PC945” (Pulmocide Limited, priority 2019, dated 2025)", "key": {"[1]": {"test": "Equilibration of Forms 1 and 2, singularly and as mixtures, in MEK and THF alone and with 5% water", "assay_type": "physicochemical", "settings": "5-10 °C, both equilibration temperatures", "description": "The influence of the initial polymorphic composition on the fate of samples was investigated by equilibration of the either the single polymorphs or an equal mixture of both in anhydrous MEK and THF as well as in the same solvents doped with 5% water.\nThe results obtained (Table 13) reveal that in anhydrous media the two polymorphs retain their structural integrity, if present singularly (Table 13, Entries 1, 2, 4 and 5). […] (Table 13, Entry 4) which may be attributable to the presence of traces of moisture in a highly hygroscopic solvent.\nThe results observed when 5% water was admixed to the two solvents indicate that the predominance of the two forms reversed under these conditions, taking kinetic factors into account. In aqueous MEK (5% water) the single polymorphs were again unchanged for the duration of the experiment (Table 13, Entries 7 and 8). In contrast, the binary polymorphic mixture converted into Form 1 in this medium (Table 13, Entry 9). In aqueous THF (5% water) the dominance of Form 1 as the most preferred polymorph was especially evident. In this environment the suspension of Form 1 remained unchanged (Table 13, Entry 10), consistent with the outcome observed for aq MEK under the same conditions.\nHowever, in THF doped with 5% water, both the suspension comprising the binary mixture, as well as that composed of the Form 2 polymorph alone, were transformed into suspensions containing only Form 1 (Table 13, Entries 11 and 12)."}, "[2]": {"tested_on": "Aspergillus fumigatus", "settings": "topical Compound I in combination with a known systemic triazole agent; in vitro human alveolus bilayer model; cited from earlier work"}, "[3]": {"biological_target": "T1, Aspergillus fumigatus sterol 14α-demethylase CYP51A (Aspergillus fumigatus, UniProt Q4WNT5)", "T1 sequence (Q4WNT5 1-515)": "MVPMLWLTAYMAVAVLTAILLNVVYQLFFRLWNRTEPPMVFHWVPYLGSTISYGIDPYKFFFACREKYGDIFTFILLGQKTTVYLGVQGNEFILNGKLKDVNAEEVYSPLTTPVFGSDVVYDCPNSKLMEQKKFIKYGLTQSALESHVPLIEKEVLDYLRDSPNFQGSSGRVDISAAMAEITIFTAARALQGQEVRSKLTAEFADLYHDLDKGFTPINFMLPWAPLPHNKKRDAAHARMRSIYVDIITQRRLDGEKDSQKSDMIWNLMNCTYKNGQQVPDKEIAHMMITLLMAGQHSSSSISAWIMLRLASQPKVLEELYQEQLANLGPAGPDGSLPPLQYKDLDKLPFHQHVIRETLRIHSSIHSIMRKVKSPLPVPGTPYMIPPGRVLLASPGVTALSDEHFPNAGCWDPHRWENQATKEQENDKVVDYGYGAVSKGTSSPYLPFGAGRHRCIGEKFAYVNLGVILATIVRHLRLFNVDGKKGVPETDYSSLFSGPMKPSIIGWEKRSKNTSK", "settings": "cited from earlier work"}, "[4]": {"test": "Solubility of Compound I in water", "assay_type": "physicochemical"}, "[5]": {"biological_target": "T2, Aspergillus fumigatus sterol 14α-demethylase CYP51B (Aspergillus fumigatus, UniProt E9QY26)", "T2 sequence (E9QY26 1-524)": "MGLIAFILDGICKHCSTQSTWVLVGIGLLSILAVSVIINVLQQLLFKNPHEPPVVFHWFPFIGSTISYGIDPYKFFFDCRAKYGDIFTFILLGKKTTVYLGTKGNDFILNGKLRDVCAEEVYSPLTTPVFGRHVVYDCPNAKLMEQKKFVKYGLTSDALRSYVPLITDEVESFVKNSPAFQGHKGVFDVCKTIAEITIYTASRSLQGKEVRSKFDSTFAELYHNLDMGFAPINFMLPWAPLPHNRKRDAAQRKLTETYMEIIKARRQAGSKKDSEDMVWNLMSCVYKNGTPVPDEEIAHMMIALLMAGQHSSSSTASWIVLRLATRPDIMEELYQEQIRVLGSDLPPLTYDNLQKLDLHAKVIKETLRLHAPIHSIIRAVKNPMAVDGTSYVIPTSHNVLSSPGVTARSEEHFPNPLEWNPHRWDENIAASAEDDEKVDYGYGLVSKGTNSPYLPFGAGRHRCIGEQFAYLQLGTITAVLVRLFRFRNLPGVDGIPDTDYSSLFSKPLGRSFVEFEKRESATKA", "settings": "cited from earlier work"}, "[6]": {"tested_on": "Aspergillus fumigatus", "settings": "intranasal dosing, immunocompromised mice, repeat dosing; cited from earlier work"}, "[7]": {"tested_on": "Aspergillus fumigatus", "settings": "topical Compound I in combination with a known systemic triazole agent; lungs of neutropenic, immunocompromised mice; cited from earlier work"}, "[8]": {"test": "Solubility of Compound I in MEK/water mixtures", "assay_type": "physicochemical", "settings": "25 °C, organic solvent or mixture, thermodynamic from solid", "protocol": "(Table 12). It was observed that Form 2 integrity was maintained for at least 24 hours at the lower temperature until the water content exceeded 6%, despite an increase in solubility of Compound I from 19 to 30 mg/ml (data not shown)."}, "[9]": {"tested_on": "Candida auris isolates", "settings": "isolates collected globally; cited from earlier work"}, "[10]": {"test": "Cross-seeding experiments of Forms 1 and 2 at 5, 25 and 50 °C, XRPD", "assay_type": "physicochemical", "settings": "96 hr", "description": "(§1) X-Ray powder diffraction patterns were collected on a PANalytical diffractometer using Cu Kα radiation (45 kV, 40 mA), θ-θ goniometer, focusing mirror, divergence slit (½″), soller slits at both incident and divergent beam (4 mm) and a PIXcel detector. The software used for data collection was X′Pert Data Collector, version 2.2f and the data was presented using X′Pert Data Viewer, version 1.2d. XRPD patterns were acquired under ambient conditions via a transmission foil sample stage (polyimide—Kapton, 12.7 μm thickness film) under ambient conditions using a PANalytical X′Pert PRO. The data collection range was 2.994-35°2θ with a continuous scan speed of 0.202 s^−1.\nA mixture of Forms 1 and 2 (50% w/w) was prepared and a sample of the mixture (20 mg) was then suspended in a solvent system (50 vol, 1.0 mL) and shaken at different temperatures for 96 hr. The solids were filtered, air dried and analysed by XRPD. The results obtained (Table 8) reveal that, in all but one of the systems investigated (Entries 10-12), the mixture of polymorphic forms had turned over into Form 2 when maintained at both RT and 50° C. The transformation in propyl acetate was seen to be especially facile as Form 2 was also isolated from the suspension which had been maintained at 5° C. (Entry 1)."}, "[11]": {"test": "Maturation of 1:1 suspensions of Forms 1 and 2 at varying temperatures, XRPD analysis", "assay_type": "physicochemical", "description": "It has been determined that the crystalline states, referred to herein as Form 1 and Form 2, constitute an enantiotropic polymorphic pair. This property arises from a temperature dependency of their relative thermodynamic stabilities, whereby one of the polymorphs is the most thermodynamically stable manifestation of the material up to a characteristic (empirically determined) temperature; above which their order of stability is inverted. In the present instance suspensions comprising equal amounts of the two polymorphs were matured, in one of six different solvents, at 50° C., 70° C. and 135° C. (Table 6). In all experiments conducted at both 50° C. and 70° C. the 1:1 mixtures converted into suspensions containing only the Form 2 polymorph. In contrast, all of the mixtures maintained at a temperature of 135° C. were transformed into Form 1.\nas §1\nA mixture of equal amounts Forms 1 and 2 (100 mg) was charged to crystallisation tubes followed by the selected solvent. The suspensions were heated to the temperatures indicated (Table 6) for 72 hr, during which time samples were taken at 24 hr intervals Solids were isolated at the maturation temperature by filtration and then dried in vacuo at 45° C. for 20 hr. In two cases (Table 6, Entries 1 and 2) suspensions were retained at 135° C. which comprised Form I from the 24 hr time point to the conclusion of the experiment. In the remaining cases (Table 6, Entries 4-6) solutions had formed at 72 hr and solids were recovered by slight cooling, all of which were determined to be Form 1. Those maturated at lower temperatures all gave Form 2 within 24 hr."}}, "note": "Where two headings read alike, the source gives them in different places. Marks after values point to notes of the source that are not given here."}
{"smiles": "[2H]c1c([2H])c(NC(=O)c2ccc(N3CCN(c4ccc(OC[C@@H]5CO[C@@](Cn6cncn6)(c6ccc(F)cc6F)C5)c(C)c4)CC3)cc2)c([2H])c([2H])c1F", "note": "[Compound 2, 4-(4-(4-(((3R,5R)-5-((1H-1,2,4-triazol-1-yl)methyl)-5-(2,4-difluorophenyl)tetrahydrofuran-3-yl)methoxy)-3-methylphenyl)piperazin-1-yl)-N-(4-fluorophenyl-2,3,5,6-d4)benzamide, reference compound]", "values": [{"measurement": "Form by XRPD Post Equilibration", "setting": "[1]; MEK (anhydrous)", "value": 2}, {"measurement": "Form by XRPD Post Equilibration", "setting": "[1]; MEK/5% Water", "value": 2}, {"measurement": "Form by XRPD Post Equilibration", "setting": "[1]; THF (anhydrous), Form 1 input: some evidence of Form 2 at 10 °C", "value": 2}, {"measurement": "Form by XRPD Post Equilibration", "setting": "[1]; THF/5% Water", "value": 1}]}
{"smiles": "Cc1cc(N2CCN(c3ccc(C(=O)Nc4ccc(F)cc4)cc3)CC2)ccc1OC[C@@H]1CO[C@@](Cn2cncn2)(c2ccc(F)cc2F)C1", "note": "[Compound I, 4-(4-(4-(((3R,5R)-5-((1H-1,2,4-triazol-1-yl)methyl)-5-(2,4-difluorophenyl)tetrahydrofuran-3-yl)methoxy)-3-methylphenyl)piperazin-1-yl)-N-(4-fluorophenyl)benzamide]", "values": [{"measurement": "anti-fungal effect of combination", "setting": "[2]", "value": "synergistic anti-fungal effects"}, {"measurement": "inhibition of sterol 14α-demethylase CYP51A", "setting": "[3]", "value": "potent inhibitor"}, {"measurement": "solubility in water", "setting": "[4]", "value": "extremely low solubility"}, {"measurement": "inhibition of sterol 14α-demethylase CYP51B", "setting": "[5]", "value": "potent inhibitor"}, {"measurement": "anti-fungal effects by biomarker analysis", "setting": "[6]", "value": "accumulated upon repeat dosing and were persistent"}, {"measurement": "anti-fungal effect of combination", "setting": "[7]", "value": "synergistic anti-fungal effects"}, {"measurement": "solubility", "setting": "[8]; MEK with 8% water by volume", "value": 23, "unit": "mg/mL"}, {"measurement": "solubility", "setting": "[8]; MEK with water content rising up to 6% by volume, 25 °C (data not shown)", "value": "19 to 30", "unit": "mg/mL"}, {"measurement": "inhibition of Candida auris isolates, potency compared with azoles", "setting": "[9]", "value": "more potent inhibitor than posaconazole, voriconazole and fluconazole"}]}
{"smiles": "Cc1cc(N2CCN(c3ccc(C(=O)Nc4ccc(F)cc4)cc3)CC2)ccc1OC[C@@H]1CO[C@@](Cn2cncn2)(c2ccc(F)cc2F)C1", "note": "[Forms 1 and 2]", "values": [{"measurement": "Polymorphic Form by XRPD", "setting": "[10]; PrOAc, 5 °C", "value": 2}, {"measurement": "Polymorphic Form by XRPD", "setting": "[10]; PrOAc, 25 °C", "value": 2}, {"measurement": "Polymorphic Form by XRPD", "setting": "[10]; PrOAc, 50 °C", "value": 2}, {"measurement": "Polymorphic Form by XRPD", "setting": "[10]; TBME, 25 °C", "value": 2}, {"measurement": "Polymorphic Form by XRPD", "setting": "[10]; TBME, 50 °C", "value": 2}, {"measurement": "Polymorphic Form by XRPD", "setting": "[10]; Toluene, 25 °C", "value": 2}, {"measurement": "Polymorphic Form by XRPD", "setting": "[10]; Toluene, 50 °C", "value": 2}, {"measurement": "Form by XRPD Post Equilibration", "setting": "[1]; MEK (anhydrous), listed as 1 + 2", "value": 2}, {"measurement": "Form by XRPD Post Equilibration", "setting": "[1]; MEK/5% Water", "value": 1}, {"measurement": "Form by XRPD Post Equilibration", "setting": "[1]; THF (anhydrous), Form 1 input: some evidence of Form 2 at 10 °C, listed as 1 + 2", "value": 2}, {"measurement": "Form by XRPD Post Equilibration", "setting": "[1]; THF/5% Water", "value": 1}, {"measurement": "Polymorph obtained at temp indicated", "setting": "[11]; decalin, 50 °C, XRPD after 72 hr", "value": 2}, {"measurement": "Polymorph obtained at temp indicated", "setting": "[11]; decalin, 70 °C, XRPD after 72 hr", "value": 2}, {"measurement": "Polymorph obtained at temp indicated", "setting": "[11]; decalin, 135 °C, 72 hr, dissolution occurred, solid obtained on slight cooling", "value": "1^b"}, {"measurement": "Polymorph obtained at temp indicated", "setting": "[11]; diphenyl ether, 50 °C, XRPD after 72 hr", "value": 2}, {"measurement": "Polymorph obtained at temp indicated", "setting": "[11]; diphenyl ether, 70 °C, XRPD after 72 hr", "value": 2}, {"measurement": "Polymorph obtained at temp indicated", "setting": "[11]; diphenyl ether, 135 °C, 72 hr, dissolution occurred, solid obtained on slight cooling", "value": "1^b"}, {"measurement": "enantiotropic transition point (temperature at which stability inverts)", "setting": "[11]; from maturation of 1:1 mixtures at 50, 70 and 135 °C", "value": "70-135 °C"}, {"measurement": "Polymorph obtained at temp indicated", "setting": "[11]; heptanol, 50 °C, XRPD after 72 hr", "value": 2}, {"measurement": "Polymorph obtained at temp indicated", "setting": "[11]; heptanol, 70 °C, XRPD after 72 hr", "value": 2}, {"measurement": "Polymorph obtained at temp indicated", "setting": "[11]; heptanol, 135 °C, 72 hr, dissolution occurred, solid obtained on slight cooling", "value": "1^b"}, {"measurement": "Polymorph obtained at temp indicated", "setting": "[11]; mesitylene, 50 °C, XRPD after 72 hr", "value": 2}, {"measurement": "Polymorph obtained at temp indicated", "setting": "[11]; mesitylene, 70 °C, XRPD after 72 hr", "value": 2}, {"measurement": "Polymorph obtained at temp indicated", "setting": "[11]; mesitylene, 135 °C, XRPD after 72 hr", "value": 1}, {"measurement": "Polymorph obtained at temp indicated", "setting": "[11]; p-cymene, 50 °C, XRPD after 72 hr", "value": 2}, {"measurement": "Polymorph obtained at temp indicated", "setting": "[11]; p-cymene, 70 °C, XRPD after 72 hr", "value": 2}, {"measurement": "Polymorph obtained at temp indicated", "setting": "[11]; p-cymene, 135 °C, 72 hr, dissolution occurred, solid obtained on slight cooling", "value": "1^b"}, {"measurement": "Polymorph obtained at temp indicated", "setting": "[11]; xylenes, 50 °C, XRPD after 72 hr", "value": 2}, {"measurement": "Polymorph obtained at temp indicated", "setting": "[11]; xylenes, 70 °C, XRPD after 72 hr", "value": 2}, {"measurement": "Polymorph obtained at temp indicated", "setting": "[11]; xylenes, 135 °C, XRPD after 72 hr", "value": 1}]}
